These results are taken from ChEMBL document CHEMBL1201862, “PubChem BioAssay data set” (2004).

Some test systems named below: Malme-3M; SK-MEL-2; MOLT-4; CCRF-CEM; HCC 2998; DU-145; T47D; TK-10; MDA-MB-231; HL-60; MDA-MB-435; MCF7; Hs-578T; M14; NCI-H226; SNB-75.
Common to all, as to assay: NCI anticancer screen, dose series, 48 h

Structures are written as SMILES.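 48-hour exposure; five concentrations; linearly interpolated endpoints. Here, GI50 denotes the concentration required for 50% inhibition of growth.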 The source made the active and inactive calls. Cut-off read from the data, not from the text of the source: active = GI50 up to about 1.1 µM and inactive = higher. Where only a bound is given, the exact number is not on record here.

For `COc1cc(/C=C2/SC(c3ccccc3)N(c3ccccc3)C2=O)cc(OC)c1OC` (centres undefined), the GI50 in the assay with Malme-3M was 80.2 µM (inactive); with SK-MEL-2, > 100 µM (inactive); with MOLT-4 it was 8.24 µM (inactive); in the assay with CCRF-CEM, 10.6 µM (inactive); in the assay with HCC 2998, > 100 µM (inactive); in the assay with DU-145, > 100 µM (inactive). The GI50 in the assay on T47D was 36.2 µM (inactive); with TK-10 it was > 100 µM (inactive); in the assay on MDA-MB-231 it was > 100 µM (inactive); in the assay with HL-60 it was 35.6 µM (inactive); in the assay with MDA-MB-435, 33.4 µM (inactive); in the assay on MCF7, 37.8 µM (inactive). The GI50 was > 100 µM (inactive) in the assay on Hs-578T, 49.9 µM (inactive) with M14 and 80.4 µM (inactive) in the assay with NCI-H226.

For `CC1CC(C)CN(S(=O)(=O)c2cc(Cl)c(Oc3ccc([N+](=O)[O-])cc3Cl)c(Cl)c2)C1` (centres undefined), the GI50 in the assay on Malme-3M, in the assay with SK-MEL-2, with MOLT-4, with HCC 2998, in the assay with DU-145 and in the assay on T47D was > 100 µM (inactive) each time. Besides, the GI50 in the assay with TK-10, in the assay with MDA-MB-231, with HL-60, with MDA-MB-435, in the assay with MCF7 and in the assay with SNB-75 was > 100 µM (inactive) throughout. Moreover, the GI50 in the assay on Hs-578T, in the assay on M14 and in the assay on NCI-H226 was > 100 µM (inactive) each time.

With `CN1C(=O)c2ccccc2OC12C=Cc1ccc(O)cc1O2` (centres undefined), the GI50 in the assay on SK-MEL-2 was 20.6 µM (inactive); in the assay on MOLT-4, 16.7 µM (inactive); in the assay with CCRF-CEM, 19.3 µM (inactive); in the assay with HCC 2998, 18.9 µM (inactive); with DU-145, 22.6 µM (inactive); in the assay with T47D, 13.8 µM (inactive). For the same compound, the GI50 is 26.8 µM (inactive) in the assay with TK-10; 18.5 µM (inactive) in the assay with MDA-MB-231; 17.8 µM (inactive) in the assay with HL-60; 16.4 µM (inactive) in the assay with MDA-MB-435; 32.4 µM (inactive) with MCF7; 22.8 µM (inactive) with SNB-75. For the same compound, the results for the GI50 in the assay with Hs-578T, with M14 and in the assay with NCI-H226 were 19.3 µM (inactive), 12.7 µM (inactive) and 23.2 µM (inactive), respectively.

As for `COc1ccc(CC(COS(=O)(=O)c2ccc(C)cc2)NS(=O)(=O)c2ccc(C)cc2)cc1` (centres undefined), the GI50 was 10.7 µM (inactive) with Malme-3M; 15.1 µM (inactive) in the assay on SK-MEL-2; > 100 µM (inactive) in the assay with MOLT-4; 11.9 µM (inactive) in the assay on HCC 2998; 10.8 µM (inactive) with DU-145; 5.45 µM (inactive) with T47D. Also, the GI50 in the assay on TK-10 is 17.4 µM (inactive); in the assay on MDA-MB-231 it was > 53.5 µM (inactive); with MDA-MB-435 it was 13.9 µM (inactive); in the assay with MCF7 it was 8.24 µM (inactive); in the assay on SNB-75 it was 8.91 µM (inactive); in the assay on Hs-578T, 15.6 µM (inactive). Moreover, the GI50 in the assay with M14 was 8.34 µM (inactive); in the assay with NCI-H226, 7.4 µM (inactive).

Consider `CCOC(=O)C1=C(C)N(Cc2ccc(Cl)cc2Cl)C2(O)C=CC(=O)C3C(=O)N(c4ccccc4)C(=O)C132` (centres undefined), for which the GI50 is 2.09 µM (inactive) in the assay on Malme-3M; 1.77 µM (inactive) with SK-MEL-2; 1.41 µM (inactive) with MOLT-4; 0.222 µM (active) in the assay on CCRF-CEM; 1.71 µM (inactive) in the assay with HCC 2998; 1.36 µM (inactive) in the assay on DU-145. For the same compound, the GI50 with T47D was 1.55 µM (inactive); with TK-10, 2.72 µM (inactive); in the assay on MDA-MB-231 it was 2.1 µM (inactive); in the assay on HL-60, 1.46 µM (inactive); with MDA-MB-435, 1.81 µM (inactive); in the assay with MCF7, 0.857 µM (active). For the same compound, the results for the GI50 in the assay on Hs-578T, in the assay with M14 and with NCI-H226 were 3.37 µM (inactive), 3.27 µM (inactive) and 1.54 µM (inactive), respectively.

Turning to `COc1cc(OC)nc(NC(=O)NS(=O)(=O)c2cccc3ncn(C)c(=O)c23)n1`, the GI50 with Malme-3M, in the assay on SK-MEL-2, in the assay on MOLT-4, in the assay with CCRF-CEM, with DU-145 and with T47D was > 100 µM (inactive) throughout. The GI50 is > 100 µM (inactive) in the assay on TK-10; > 100 µM (inactive) with MDA-MB-231; > 100 µM (inactive) in the assay on HL-60; > 100 µM (inactive) with MDA-MB-435; > 100 µM (inactive) in the assay on MCF7; 41.3 µM (inactive) in the assay with SNB-75. Besides, the figures for the GI50 in the assay on Hs-578T, in the assay with M14 and in the assay on NCI-H226 were 67.1 µM (inactive), > 100 µM (inactive) and > 100 µM (inactive), respectively.

Turning to `C=C1CC2(CCCC3(CC(=C)C(=O)O3)C2(C)C)OC1=O` (centres undefined), the GI50 was 1.64 µM (inactive) in the assay with Malme-3M; 7.24 µM (inactive) with SK-MEL-2; 0.302 µM (active) in the assay with MOLT-4; 0.437 µM (active) in the assay on CCRF-CEM; 3.73 µM (inactive) in the assay on DU-145; 3.33 µM (inactive) in the assay with T47D. The GI50 was 1.18 µM (inactive) in the assay on TK-10; 4.95 µM (inactive) with MDA-MB-231; 2.4 µM (inactive) in the assay on HL-60; 2.75 µM (inactive) in the assay on MDA-MB-435; 3.4 µM (inactive) in the assay with MCF7; 16.7 µM (inactive) in the assay with SNB-75. For the same compound, the GI50 in the assay with Hs-578T is 20.8 µM (inactive); in the assay on M14, 2.56 µM (inactive); with NCI-H226, 2.22 µM (inactive).

As to `N#Cc1nc(-c2ccco2)oc1N`, the GI50 in the assay with Malme-3M, with MOLT-4, in the assay with CCRF-CEM, in the assay on HCC 2998, in the assay on DU-145 and with T47D was > 10 µM (inactive) each time. Moreover, the GI50 in the assay with TK-10, in the assay on MDA-MB-231, in the assay on HL-60, in the assay on MDA-MB-435, in the assay on MCF7 and in the assay on SNB-75 was > 10 µM (inactive) in each case. Besides, the GI50 in the assay on Hs-578T, in the assay with M14 and in the assay on NCI-H226 was > 10 µM (inactive) in each case.

On to `Cc1ccc(Nc2n[nH]c(=S)s2)cc1`, for which the GI50 was > 100 µM (inactive) in the assay on Malme-3M; > 100 µM (inactive) in the assay on MOLT-4; > 100 µM (inactive) in the assay on CCRF-CEM; > 100 µM (inactive) in the assay with HCC 2998; > 100 µM (inactive) with DU-145; 96.6 µM (inactive) in the assay with T47D. Besides, the GI50 in the assay with TK-10 is > 100 µM (inactive); in the assay with MDA-MB-231 it was > 100 µM (inactive); with HL-60 it was > 100 µM (inactive); in the assay on MDA-MB-435, 42.4 µM (inactive); with MCF7, > 100 µM (inactive); with SNB-75, > 100 µM (inactive). Moreover, the GI50 in the assay with Hs-578T, with M14 and with NCI-H226 was > 100 µM (inactive) throughout.

Turning to `CC(C)CCCC(C)[C@H]1CCC2[C@@H]3CCC4Cc5nc6c(nc5C[C@]4(C)C3CC[C@@]21C)CC1CC[C@@H]2C(CC[C@@]3(C)C2CC[C@@H]3C(C)CCCC(C)C)[C@@]1(C)C6` (some centres undefined), the GI50 with Malme-3M, with SK-MEL-2, in the assay on MOLT-4, in the assay with CCRF-CEM, with DU-145 and in the assay on T47D was > 100 µM (inactive) throughout. Also, the GI50 is > 100 µM (inactive) with TK-10; > 100 µM (inactive) in the assay with MDA-MB-231; > 100 µM (inactive) in the assay on HL-60; > 100 µM (inactive) in the assay on MDA-MB-435; > 100 µM (inactive) in the assay on MCF7; 38.8 µM (inactive) with SNB-75. For the same compound, the GI50 in the assay with Hs-578T, in the assay on M14 and in the assay on NCI-H226 was > 100 µM (inactive) each time.

As for `CSc1c(C(N)=S)c(N)nn1-c1ccccc1`, the GI50 in the assay with Malme-3M, in the assay with SK-MEL-2, with MOLT-4, in the assay on HCC 2998, in the assay on DU-145 and with T47D was > 100 µM (inactive) in each case. Also, the GI50 in the assay on TK-10, in the assay on MDA-MB-231, with HL-60, in the assay with MDA-MB-435, with MCF7 and in the assay with SNB-75 was > 100 µM (inactive) each time. Also, the GI50 with Hs-578T, in the assay with M14 and in the assay with NCI-H226 was > 100 µM (inactive) throughout.

Regarding `O=c1[nH]c(=O)n(C2OC(CO)C(O)C2O)cc1OCCc1ccccc1` (centres undefined), the GI50 in the assay on Malme-3M, with SK-MEL-2, with MOLT-4, with CCRF-CEM, in the assay with HCC 2998 and in the assay on DU-145 was > 100 µM (inactive) throughout. The GI50 in the assay with T47D, in the assay on TK-10, with MDA-MB-231, in the assay on HL-60, with MDA-MB-435 and with MCF7 was > 100 µM (inactive) throughout. For the same compound, the GI50 in the assay on Hs-578T, with M14 and in the assay on NCI-H226 was > 100 µM (inactive) each time.

`COc1ccc(-c2nc(SCC(=O)N/N=C/c3ccc([N+](=O)[O-])cc3)[nH]c2-c2ccc(OC)cc2)cc1`: the GI50 is 17.5 µM (inactive) in the assay on Malme-3M; 6.47 µM (inactive) with SK-MEL-2; 7.66 µM (inactive) in the assay on MOLT-4; 3.18 µM (inactive) in the assay with CCRF-CEM; 12.1 µM (inactive) with HCC 2998; 28 µM (inactive) with DU-145. In addition, the GI50 in the assay with T47D is 15.8 µM (inactive); in the assay on TK-10, 22.3 µM (inactive); with MDA-MB-231 it was 21.2 µM (inactive); in the assay with HL-60, 4.07 µM (inactive); in the assay with MDA-MB-435 it was 3.24 µM (inactive); with MCF7, 4.44 µM (inactive). Also, the figures for the GI50 in the assay with SNB-75, in the assay with Hs-578T and with M14 were 15.2 µM (inactive), 14.4 µM (inactive) and 12.2 µM (inactive), respectively.
